# From PubChem BioAssay (NCI)
#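 Following 48 hours of exposure in 96-well plates, responses at five concentrations were used to interpolate endpoints linearly. The concentration for 50% growth inhibition is given as GI50. Definition used: TGI = concentration required for complete inhibition of growth.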 Where a SMILES comes first, the peptide text is derived from it. [ ]: non-standard residue; d: D form. Phe(4-Cl) = N[CH](Cc1ccc(Cl)cc1)C(=O)O; 2Nal = N[CH](Cc1ccc2ccccc2c1)C(=O)O; 3Pal = N[CH](Cc1cccnc1)C(=O)O
# Legend:
# Assay in all cases: NCI tumour cell line growth inhibition, 48 h
# BT-549 breast = test system: BT-549 breast
# HOP-92 NSCLC = test system: HOP-92 NSCLC
# NCI-H226 lung = test system: NCI-H226 lung
# NCI-H23 lung = test system: NCI-H23 lung
# UACC-257 melanoma = test system: UACC-257 melanoma
# CCRF-CEM leukemia = test system: CCRF-CEM leukemia
# HL-60(TB) leukemia = test system: HL-60(TB) leukemia
# K-562 leukemia = test system: K-562 leukemia
# MDA-MB-435 = test system: MDA-MB-435
# MOLT-4 leukemia = test system: MOLT-4 leukemia
# NCI/ADR-RES ovarian = test system: NCI/ADR-RES ovarian
# OVCAR-4 ovarian = test system: OVCAR-4 ovarian
# OVCAR-8 ovarian = test system: OVCAR-8 ovarian
# RPMI-8226 leukemia = test system: RPMI-8226 leukemia
# SK-MEL-5 melanoma = test system: SK-MEL-5 melanoma
# TK-10 renal = test system: TK-10 renal
# UACC-62 melanoma = test system: UACC-62 melanoma
# ACHN renal = test system: ACHN renal
# CAKI-1 renal = test system: CAKI-1 renal
# DU-145 prostate = test system: DU-145 prostate
# HCT-116 colon = test system: HCT-116 colon
# HCT-15 colon = test system: HCT-15 colon
# HOP-62 NSCLC = test system: HOP-62 NSCLC
# HT29 colon = test system: HT29 colon
# IGROV1 ovarian = test system: IGROV1 ovarian
# KM12 colon = test system: KM12 colon
# LOX IMVI melanoma = test system: LOX IMVI melanoma
# MALME-3M melanoma = test system: MALME-3M melanoma
# MDA-MB-231 breast = test system: MDA-MB-231 breast
# OVCAR-3 ovarian = test system: OVCAR-3 ovarian
# PC-3 prostate = test system: PC-3 prostate
# SK-OV-3 ovarian = test system: SK-OV-3 ovarian
# SN12C renal = test system: SN12C renal
# SR leukemia = test system: SR leukemia
# UO-31 renal = test system: UO-31 renal
smiles,measurement,setting,value
CC(=O)NC(Cc1ccc2ccccc2c1)C(=O)NC(Cc1ccc(Cl)cc1)C(=O)NC(Cc1cccnc1)C(=O)NC(CO)C(=O)NC(Cc1ccc(O)cc1)C(=O)NC(CCCN=C(N)N)C(=O)NC(CC(C)C)C(=O)NC(CCCN=C(N)N)C(=O)N1CCCC1C(=O)NC(C)C(N)=O (stereo unspecified) (Ac-[2Nal][Phe(4-Cl)][3Pal]SYRLRPA-NH2; configuration not given here),TGI,BT-549 breast,> 100000 nM
same,TGI,HOP-92 NSCLC,> 100 µM
same,TGI,NCI-H226 lung,> 100 µM
same,TGI,NCI-H23 lung,> 100 µM
same,TGI,UACC-257 melanoma,> 100 µM
O=C1NC(=O)c2c1c1c3ccccc3ccc1c1[nH]c3ccc(Br)cc3c21,GI50,CCRF-CEM leukemia,1220 nM
same,TGI,CCRF-CEM leukemia,> 100 µM
same,GI50,HL-60(TB) leukemia,1750 nM
same,TGI,HL-60(TB) leukemia,6.29 µM
same,GI50,K-562 leukemia,789 nM
same,TGI,K-562 leukemia,> 100 µM
same,GI50,MDA-MB-435,1660 nM
same,TGI,MDA-MB-435,3.74 µM
same,GI50,MOLT-4 leukemia,1190 nM
same,TGI,MOLT-4 leukemia,4.03 µM
same,GI50,NCI-H23 lung,1460 nM
same,TGI,NCI-H23 lung,4.48 µM
same,GI50,NCI/ADR-RES ovarian,1530 nM
same,TGI,NCI/ADR-RES ovarian,5.63 µM
same,GI50,OVCAR-4 ovarian,1740 nM
same,TGI,OVCAR-4 ovarian,4.85 µM
same,GI50,OVCAR-8 ovarian,2330 nM
same,TGI,OVCAR-8 ovarian,> 100000 nM
same,GI50,RPMI-8226 leukemia,501 nM
same,TGI,RPMI-8226 leukemia,2870 nM
same,GI50,SK-MEL-5 melanoma,1560 nM
same,TGI,SK-MEL-5 melanoma,2940 nM
same,GI50,TK-10 renal,2450 nM
same,TGI,TK-10 renal,> 100 µM
same,GI50,UACC-62 melanoma,1910 nM
same,TGI,UACC-62 melanoma,3870 nM
NCCCn1c2c(c3ccc([N+](=O)[O-])cc3c1=O)C(=O)c1cc3c(cc1-2)OCO3,GI50,ACHN renal,< 10 nM
same,GI50,BT-549 breast,164 nM
same,TGI,BT-549 breast,1760 nM
same,GI50,CAKI-1 renal,< 10 nM
same,TGI,CAKI-1 renal,491 nM
same,GI50,CCRF-CEM leukemia,16.4 nM
same,TGI,CCRF-CEM leukemia,> 100 µM
same,GI50,DU-145 prostate,< 10 nM
same,TGI,DU-145 prostate,1480 nM
same,GI50,HCT-116 colon,> 100 µM
same,TGI,HCT-116 colon,> 100 µM
same,GI50,HCT-15 colon,28.2 nM
same,TGI,HCT-15 colon,201 nM
same,GI50,HL-60(TB) leukemia,< 15.5 nM
same,GI50,HOP-62 NSCLC,1430 nM
same,TGI,HOP-62 NSCLC,> 100 µM
same,GI50,HOP-92 NSCLC,2600 nM
same,TGI,HOP-92 NSCLC,11.1 µM
same,GI50,HT29 colon,148 nM
same,TGI,HT29 colon,> 100 µM
same,GI50,IGROV1 ovarian,478 nM
same,TGI,IGROV1 ovarian,> 100 µM
same,GI50,K-562 leukemia,58.1 nM
same,GI50,KM12 colon,321 nM
same,TGI,KM12 colon,4.42 µM
same,GI50,LOX IMVI melanoma,< 10 nM
same,TGI,LOX IMVI melanoma,121 nM
same,GI50,MALME-3M melanoma,488 nM
same,TGI,MALME-3M melanoma,2820 nM
same,GI50,MDA-MB-231 breast,440 nM
same,TGI,MDA-MB-231 breast,935 nM
same,GI50,MDA-MB-435,592 nM
same,TGI,MDA-MB-435,3.28 µM
same,GI50,MOLT-4 leukemia,< 10 nM
same,TGI,MOLT-4 leukemia,> 100 µM
same,GI50,NCI-H23 lung,22.8 nM
same,TGI,NCI-H23 lung,1.14 µM
same,GI50,OVCAR-3 ovarian,886 nM
same,TGI,OVCAR-3 ovarian,3.21 µM
same,GI50,OVCAR-8 ovarian,106 nM
same,TGI,OVCAR-8 ovarian,402 nM
same,GI50,PC-3 prostate,1170 nM
same,TGI,PC-3 prostate,3.56 µM
same,GI50,RPMI-8226 leukemia,< 17 nM
same,TGI,RPMI-8226 leukemia,2140 nM
same,GI50,SK-MEL-5 melanoma,27.3 nM
same,TGI,SK-MEL-5 melanoma,247 nM
same,GI50,SK-OV-3 ovarian,320 nM
same,GI50,SN12C renal,< 10 nM
same,TGI,SN12C renal,385 nM
same,GI50,SR leukemia,22.5 nM
same,TGI,SR leukemia,> 100 µM
same,GI50,TK-10 renal,1830 nM
same,TGI,TK-10 renal,4.98 µM
same,GI50,UACC-257 melanoma,372 nM
same,TGI,UACC-257 melanoma,3 µM
same,GI50,UACC-62 melanoma,28.8 nM
same,TGI,UACC-62 melanoma,1650 nM
same,GI50,UO-31 renal,< 10 nM
same,TGI,UO-31 renal,200 nM
